Measured values taken from patent publication US20220331391A1 (priority 2021, published 2022).
Converted amounts (≈) assume the structure as drawn. “And” between values parts separate entries of the source, which are not always exact repeats. Identical values can stand only once. Like-named read-outs stand apart in the source and are kept apart here.

Assays:
[1] = test system: Coccidioides posadasii, Silveira strain; parameters: species or system mice; conditions: mouse, in vivo
[2] = test system: Coccidioides posadasii, Silveira strain; conditions: cited from earlier work
[3] = human, in vivo, po
[4] = dog, in vivo, po
[5] = test system: Coccidioides; conditions: mouse, in vivo, 40 mg/kg/day; cited from earlier work
[6] = test system: Coccidioides; conditions: mouse, in vivo; cited from earlier work
[7] = mouse, in vivo, cited from earlier work; for Cmax in plasma / Tmax in plasma / t1/2 in plasma: po
[8] = mouse, in vivo, po, cited from earlier work
[9] = mouse, in vivo; cited from earlier work
[10] = in vivo, cited from earlier work

C[C@@H]([C@H](N)C(=O)N[C@H](C(=O)O)[C@H]1O[C@@H](n2ccc(=O)[nH]c2=O)[C@H](O)[C@@H]1O)[C@H](O)c1ccc(O)cn1 [nikZ, Nikkomycin Z]
Brains sterilized in survivors [1]: 86% and 89% and 80% | Brains sterilized, mice/10 treated [1]: ≥ 6 mice/10 | Clear brains of survivors (mice) [1]: 6 of 7 and 8 of 9 | Infected brain, number of mice among survivors [1]: 1 and 2 | Infected kidney, number of mice among survivors [1]: 0 | Infected spleen, number of mice among survivors [1]: 0 | Kidney CFU in survivors: number of mice with 0 CFU [1]: 7 and 9 and 10 | Kidney CFU in survivors: number of mice with 1-2 CFU [1]: 0 | Kidney CFU in survivors: number of mice with 10-20 CFU [1]: 0 | Kidney CFU in survivors: number of mice with TNTC (too numerous to count) [1]: 0 | Liver CFU in survivors: number of mice with 0 CFU [1]: 6 and 9 and 10 | Liver CFU in survivors: number of mice with 10-20 CFU [1]: 0 | Liver CFU in survivors: number of mice with TNTC (too numerous to count) [1]: 0 | Lung CFU in survivors: number of mice with 0 CFU [1]: 6 and 9 | Lung CFU in survivors: number of mice with 10-20 CFU [1]: 0 | Lung CFU in survivors: number of mice with TNTC (too numerous to count) [1]: 0 | No infection any organ, number of mice (complete sterilization) [1]: 6 and 8 | Spleen CFU in survivors: number of mice with 0 CFU [1]: 7 and 9 and 10 | Spleen CFU in survivors: number of mice with 1-2 CFU [1]: 0 | Spleen CFU in survivors: number of mice with 10-20 CFU [1]: 0 | Spleen CFU in survivors: number of mice with TNTC (too numerous to count) [1]: 0 | Survivors [1]: 7/10 and 9/10 and 10/10 | Cmin as % of Cmax (mouse, in vivo): 1% | Blood level as % of Cmax by 8 hours (mouse, in vivo, po): about 5% | Time to reach Cmax (mouse, in vivo, po): 1 to 2 h | AUC (mouse, in vivo, po, 50 mg/kg): 13,000 | Cmax (mouse, in vivo, po, 50 mg/kg): 3,750 ng/ml | T 1/2 (mouse, in vivo, po, 50 mg/kg): 2.61 h | Tmax (mouse, in vivo, po, 50 mg/kg): 1 | AUC (mouse, in vivo, po, 100 mg/kg): 20,600 | Cmax (mouse, in vivo, po, 100 mg/kg): 4,620 ng/ml | T 1/2 (mouse, in vivo, po, 100 mg/kg): 2.15 h | Tmax (mouse, in vivo, po, 100 mg/kg): 1 | AUC (mouse, in vivo, po, 300 mg/kg): 38,200 | Cmax (mouse, in vivo, po, 300 mg/kg): 7,950 ng/ml | T 1/2 (mouse, in vivo, po, 300 mg/kg): 2.26 h | Tmax (mouse, in vivo, po, 300 mg/kg): 2 | Mouse plasma nikZ level (time 0.5): 2920 ng/mL | Mouse plasma nikZ level, % (of Cmax) (time 0.5): 77.9% | Mouse plasma nikZ level (time 1): 3750 ng/mL | Mouse plasma nikZ level, % (of Cmax) (time 1): 100% | Mouse plasma nikZ level (time 2): 2320 ng/mL | Mouse plasma nikZ level, % (of Cmax) (time 2): 62% and 61.9% | Mouse plasma nikZ level (time 4): 1400 ng/mL | Mouse plasma nikZ level, % (of Cmax) (time 4): 37% and 37.3% | Mouse plasma nikZ level (time 8): 180 ng/mL | Mouse plasma nikZ level, % (of Cmax) (time 8): 4.8% | Mouse plasma nikZ level (time 12): 35 ng/mL | Mouse plasma nikZ level, % (of Cmax) (time 12): 0.9% | Mouse plasma nikZ level (time 24): 7.5 ng/mL | Mouse plasma nikZ level, % (of Cmax) (time 24): 0.2% | MFC [2]: 2.5 mg/L (≈ 5.05 µM) | MIC [2]: 2.5 mg/L (≈ 5.05 µM) | Blood level as % of Cmax by 8 hours [3]: about 5% | Time to reach Cmax [3]: 1 to 2 h | Blood level as % of Cmax by 8 hours [4]: about 5% | Time to reach Cmax [4]: 1 to 2 h | Survival [5]: 20% | Liver CFU asymptote of dose response curve [6]: about 100 CFU | Lung fungal count at suppression (dose response curve) [6]: below 10 CFU | Spleen fungal count at suppression (dose response curve) [6]: below 10 CFU | log10 CFU reduction in liver [6]: −1.7 log10 CFU | log10 CFU reduction in lung [6]: −3.2 log10 CFU | log10 CFU reduction in spleen [6]: −1.8 log10 CFU | Cmax in plasma ([7]; 100 mg/kg): 4.2 µg/mL | Tmax in plasma ([7]; 100 mg/kg): 2 h | t1/2 in plasma ([7]; 100 mg/kg): 2.2 h | Cmax in plasma ([7]; 300 mg/kg): 8 µg/mL | Tmax in plasma ([7]; 300 mg/kg): 1 h | t1/2 in plasma ([7]; 300 mg/kg): 2.3 h | Half-life in blood (clearance) [7]: 1 to 2 h | Cmax in brain ([8]; 100 mg/kg): 0.20 mcg/gm | Tmax in brain ([8]; 100 mg/kg): 2 h | t1/2 in brain ([8]; 100 mg/kg): 6.2 h | Cmax in brain ([8]; 300 mg/kg): 0.26 mcg/gm | Tmax in brain ([8]; 300 mg/kg): 2 h | t1/2 in brain ([8]; 300 mg/kg): 4.4 h | Tolerated oral dose [9]: up to 2000 mg/kg/day | Half-life in blood (clearance) ([10]; human): 1 to 2 h | Dose at which tapering in oral uptake efficiency is observed (breakpoint) ([10]; po): about 5.5 mg/kg

OC(Cn1cncn1)(Cn1cncn1)c1ccc(F)cc1F [FCZ, Fluconazole, reference compound]
Brains sterilized in survivors [1]: 20% | Clear brains of survivors (mice) [1]: 1 of 5 | Infected brain and infected other organs, number of mice among survivors [1]: 4 | Infected brain only, number of mice among survivors [1]: 0 | Infected brain, number of mice among survivors [1]: 4 | Infected kidney, number of mice among survivors [1]: 1 | Infected liver, number of mice among survivors [1]: 4 | Infected lung, number of mice among survivors [1]: 4 | Infected spleen, number of mice among survivors [1]: 3 | Kidney CFU in survivors: number of mice with 0 CFU [1]: 5 | Kidney CFU in survivors: number of mice with 1-2 CFU [1]: 0 | Kidney CFU in survivors: number of mice with 10-20 CFU [1]: 0 | Kidney CFU in survivors: number of mice with TNTC (too numerous to count) [1]: 0 | Liver CFU in survivors: number of mice with 0 CFU [1]: 1 | Liver CFU in survivors: number of mice with 1-2 CFU [1]: 1 | Liver CFU in survivors: number of mice with 10-20 CFU [1]: 2 | Liver CFU in survivors: number of mice with TNTC (too numerous to count) [1]: 1 | Lung CFU in survivors: number of mice with 0 CFU [1]: 1 | Lung CFU in survivors: number of mice with 1-2 CFU [1]: 2 | Lung CFU in survivors: number of mice with 10-20 CFU [1]: 1 | Lung CFU in survivors: number of mice with TNTC (too numerous to count) [1]: 1 | No infection any organ, number of mice (complete sterilization) [1]: 1 | Semiquantitative culture, CFU in all organs except the spleen [1]: too numerous to count | Semiquantitative culture, CFU in spleen [1]: no CFU | Spleen CFU in survivors: number of mice with 0 CFU [1]: 2 | Spleen CFU in survivors: number of mice with 1-2 CFU [1]: 2 | Spleen CFU in survivors: number of mice with 10-20 CFU [1]: 1 | Spleen CFU in survivors: number of mice with TNTC (too numerous to count) [1]: 0 | Survival [1]: 50% | Survivors [1]: 5/10 | MFC [2]: > 100 mg/L | MIC [2]: 6.25 mg/L (≈ 20.4 µM)
